The source of these data is patent US12291529B2, “Heterocyclic GLP-1 agonists” (Gasherbrum Bio, Inc., priority 2023, dated 2025).

One data set has as its target GLP-1 Receptor (Homo sapiens, UniProt P43220). Nature of the data set: GLP-1R agonist cAMP stimulation assay (HEK293/GLP1R/CRE-LUC cells, Cisbio cAMP dynamic 2 kit). The class given is cell-based. The method, boiled down:
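HEK293 cells stably expressing human GLP-1R with CRE-Luc reporter, 1000 cells/well in DPBS with 0.5 mM IBMX and BSA. Cells treated with compound (½-log dilutions) for 30 min at 37 °C. cAMP read by HTRF at 665/615 nm; % activity relative to vehicle and maximal control.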

Data set [1] is described as follows: Caco-2 permeability / efflux study. The note with it: human, Caco-2, pH 7.4, Caco-2 efflux ratio, 10 μM. In kind it is in vitro ADME. The method, then:
(§1) Incubations with Caco-2 cell monolayers were performed in duplicate in a 96-well Transwell plate. Transport buffer solution (HBSS, 10 mM HEPES, pH 7.4, with 0.5% BSA) containing test article (10 μM), and either the control compounds metoprolol (10 μM), cimetidine (10 μM) and erythromycin (10 μM), was added to appropriate donor wells of the apical or basolateral plate. The transport buffer with DMSO was added to appropriate wells of receiver wells. Following incubation at 37° C. for 2 hours, the cell plates were removed and 50 μL samples from both apical and basolateral sides were transferred into new 96-well plates. Subsequently, 200 μL of acetonitrile containing internal standard was added to all samples to precipitate protein prior to analysis by UPLC-MS/MS. Lucifer yellow was used as a marker to confirm the integrity of the cell monolayers after 2 hours incubation.

In the next data set the test system is Caco-2 cell monolayers. Nature of the data set: Caco-2 permeability / efflux study. The class given is in vitro ADME. The note with it: 10 μM, 2 hours, 37° C., pH 7.4, 0.5% BSA. As to the method: as §1
(In general: Passage across Caco-2 layers is used to estimate intestinal permeability.)

A short description of another data set: FaSSIF solubility. The class given is physicochemical. Particulars: FaSSIF buffer, 25 °C, fassif, thermodynamic from solid. As to the method: Stock solution of test article and control compound (chlorpromazine, astemizole, and phenytoin) were prepared in DMSO at 10 mM. 50 μL each of stock solutions were dried down, followed by reconstitution to 1 mM with FaSSIF buffer in the well. The incubation plate was shaked at 25° C., 1,100 rpm for 4 hours. And then, the samples were filtered by using the vacuum manifold. 10 μL aliquots from each well was transferred to a new 96-well plate and adjust the volume to 80 μL with blank buffer. Using a mixture of H2O and acetonitrile containing internal standard (1:1) to dilute the sample 100-fold, 500-fold and 2,500-fold. The samples are evaluated by LC/MS/MS analysis. All compounds were tested in singlet.

In brackets after ≈: the same amount, converted by molar mass.

GLP-1 Receptor, sequence (P43220 24-463, species assumed): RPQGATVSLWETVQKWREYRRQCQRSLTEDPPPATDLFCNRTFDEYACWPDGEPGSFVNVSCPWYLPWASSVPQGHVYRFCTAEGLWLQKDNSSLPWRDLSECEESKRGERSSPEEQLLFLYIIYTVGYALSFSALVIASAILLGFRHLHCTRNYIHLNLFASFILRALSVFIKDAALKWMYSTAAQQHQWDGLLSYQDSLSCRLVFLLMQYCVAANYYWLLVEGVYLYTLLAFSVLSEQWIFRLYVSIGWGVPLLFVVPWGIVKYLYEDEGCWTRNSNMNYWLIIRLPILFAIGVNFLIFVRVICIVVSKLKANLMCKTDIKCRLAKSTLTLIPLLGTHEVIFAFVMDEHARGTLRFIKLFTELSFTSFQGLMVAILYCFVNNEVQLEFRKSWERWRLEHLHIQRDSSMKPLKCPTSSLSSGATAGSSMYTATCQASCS

By EC50 is commonly meant the concentration that produces a half-maximal response. A low value points to greater potency. The efflux ratio is the permeability from basolateral to apical divided by that in the opposite direction, in the common usage. For orientation: solubility means the dissolved amount per volume that the medium holds. Read a low solubility as a poorly soluble substance. With `Cc1cc(-n2nc3c(c2-n2ccn(-c4ccc(S5(=O)=NCCC5)cc4)c2=O)[C@H](C)N(C(=O)c2cc4cc(C5CCOCC5)ccc4n2[C@@]2(c4noc(=O)[nH]4)C[C@@H]2C)CC3)cc(C)c1F` (single isomer, unassigned) [Compound 142], the EC50 at GLP-1 Receptor (Table 3, HEK293/GLP1R/CRE-LUC cells, 30 min) stood at 0.045 nM; on GLP-1 Receptor (Table 4), 0.063 nM. Also, the efflux ratio at 2 h, 10 μM in data set [1] was more than 156. In addition, the “Caco-2 Perm” value in the data set on Caco-2 cell monolayers is less than 0.05 ×10⁻⁶ cm/s. Besides, the solubility at 4 h in the data set “FaSSIF solubility” amounted to 8.07 µM (≈ 7.15 µg/mL).
